Measurements reported in US4345938A, “Herbicidal 2-haloacetanilides” (Monsanto Company, priority 1980, dated 1982).
Like-named read-outs stand apart in the source and are kept apart here.

How the values were obtained:
Type in all cases: in vivo
Cyperus serotinus = test: Field transplant rice test, applied 9 DAT, CS; conditions: for inhibition at 375 g/ha / inhibition at 750 g/ha / inhibition at 1500 g/ha / inhibition at 3000 g/ha: Cyperus serotinus, 216 h, read-out: Percent Inhibition, CS; for inhibition at 375 g/ha: 0.375 Kg/Ha; for inhibition at 750 g/ha: 0.75 Kg/Ha; for inhibition at 1500 g/ha: 1.5 Kg/Ha; for inhibition at 3000 g/ha: 3.0 Kg/Ha
Summary of the method: (§1)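 Field test in transplanted rice, herbicides applied as granules (2.5% or 5.0% w/w active) 9 days after transplant at 3.0 down to 0.375 kg/ha. Weed control observed weekly from 3 to 7 weeks after transplant.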

Echinochloa crus-galli [1] = test: Greenhouse transplant rice test, EC; conditions: about 3 WAT, read-out: Percent Inhibition, EC
From the text: (§2) The test procedure used in this greenhouse test is as follows: Ray silt loam top soil containing about 0.05% by weight of krillium and sifted through a […] screen is fumigated about 5-10 days prior to use. Pots are then filled with said Ray silt loam soil to a level to allow for a 1 in. (2.54 cm) flooding depth. Rice plants (Bluebelle) of 2 to 3 weeks age are transplanted to the pots and bulbs or seeds of the test weeds also planted in the pots. The pots are then flooded and the test chemical applied to the surface of the flood water. The flood water is reduced to allow for germination of the Echinochloa crus-galli (barnyardgrass) seed and subsequently reflooded and maintained in that condition. Observations of percent inhibition using a scale of 0-100% are made about 3 weeks after transplant (WAT).
(§3) The test data in Table III for all compounds was obtained under identical test conditions. The weeds used in the tests herein have the following abbreviations in the tables: Echinochloa crus-galli (EC), Monochloria vaginalis (MV), Cyperus Serotinus (CS), Eleocharis Kuroguwai (EK) and Sagittaria trifolia (ST).

Monochoria vaginalis [2] = test: Field transplant rice test, applied 9 DAT, MV; conditions: for inhibition at 375 g/ha / inhibition at 750 g/ha / inhibition at 1500 g/ha / inhibition at 3000 g/ha: Pontederia vaginalis, 216 h, read-out: Percent Inhibition, MV; for inhibition at 375 g/ha: 0.375 Kg/Ha; for inhibition at 750 g/ha: 0.75 Kg/Ha; for inhibition at 1500 g/ha: 1.5 Kg/Ha; for inhibition at 3000 g/ha: 3.0 Kg/Ha
Summary of the method: as §1

Eleocharis kuroguwai [3] = test: Field transplant rice test, applied 9 DAT, EK; conditions: for inhibition at 375 g/ha / inhibition at 750 g/ha / inhibition at 1500 g/ha / inhibition at 3000 g/ha: Eleocharis kuroguwai, 216 h, read-out: Percent Inhibition, EK; for inhibition at 375 g/ha: 0.375 Kg/Ha; for inhibition at 750 g/ha: 0.75 Kg/Ha; for inhibition at 1500 g/ha: 1.5 Kg/Ha; for inhibition at 3000 g/ha: 3.0 Kg/Ha
Summary of the method: as §1

Eleocharis kuroguwai [4] = test: Field transplant rice test, applied 0 DAT, EK; conditions: 0 h, read-out: Percent Inhibition, EK; for inhibition at 375 g/ha: 0.375 Kg/Ha; for inhibition at 750 g/ha: 0.75 Kg/Ha; for inhibition at 1500 g/ha: 1.5 Kg/Ha; for inhibition at 3000 g/ha: 3.0 Kg/Ha
Summary of the method: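 Field test in transplanted rice, herbicide applied as granules (2.5% or 5.0% w/w active) at transplanting (0 DAT). Rates from 3.0 kg/ha down to 0.375 kg/ha. Weed control observed weekly from 2 to 6 weeks after transplant, reported at 2, 4 and 6 WAT.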

Monochoria vaginalis [5] = test: Greenhouse transplant rice test, MV; conditions: Pontederia vaginalis, about 3 WAT, read-out: Percent Inhibition, MV
From the text: as §2, §3

Echinochloa crus-galli [6] = test: Field transplant rice test, applied 9 DAT, EC; conditions: for inhibition at 375 g/ha / inhibition at 750 g/ha / inhibition at 1500 g/ha / inhibition at 3000 g/ha: Echinochloa crus-galli, 216 h, read-out: Percent Inhibition, EC; for inhibition at 375 g/ha: 0.375 Kg/Ha; for inhibition at 750 g/ha: 0.75 Kg/Ha; for inhibition at 1500 g/ha: 1.5 Kg/Ha; for inhibition at 3000 g/ha: 3.0 Kg/Ha
Summary of the method: as §1

Compound: CCCCOCN(C(=O)CCl)c1c(CC)cccc1CC [Compound A, 2',6'-diethyl-N-(n-butoxymethyl)-2-chloroacetanilide]
- inhibition at 375 g/ha (Cyperus serotinus; 3 WAT): 80%
- inhibition at 375 g/ha (Cyperus serotinus; 5 WAT): 33%
- inhibition at 375 g/ha (Cyperus serotinus; 7 WAT): 67%
- inhibition at 750 g/ha (Cyperus serotinus; 3 WAT): 70%
- inhibition at 750 g/ha (Cyperus serotinus; 5 WAT): 50%
- inhibition at 750 g/ha (Cyperus serotinus; 7 WAT): 38%
- inhibition at 1500 g/ha (Cyperus serotinus; 3 WAT): 100%
- inhibition at 1500 g/ha (Cyperus serotinus; 5 WAT): 100%
- inhibition at 1500 g/ha (Cyperus serotinus; 7 WAT): 100%
- inhibition at 3000 g/ha (Cyperus serotinus; 3 WAT): 88%
- inhibition at 3000 g/ha (Cyperus serotinus; 5 WAT): 100%
- inhibition at 3000 g/ha (Cyperus serotinus; 7 WAT): 100%
- selectivity factor (GR15/GR85), CS in transplant rice (Cyperus serotinus; between 3 WAT and 7 WAT): 2
- inhibition at 280 g/ha (Echinochloa crus-galli [1]; 0.28 Kg/Ha): 96%
- inhibition at 560 g/ha (Echinochloa crus-galli [1]; 0.56 Kg/Ha): 100%
- inhibition at 1120 g/ha (Echinochloa crus-galli [1]; 1.12 Kg/Ha): 100%
- inhibition at 2240 g/ha (Echinochloa crus-galli [1]; 2.24 Kg/Ha): 100%
- inhibition at 375 g/ha (Monochoria vaginalis [2]; 3 WAT): 90%
- inhibition at 375 g/ha (Monochoria vaginalis [2]; 5 WAT): 98%
- inhibition at 375 g/ha (Monochoria vaginalis [2]; 7 WAT): 80%
- inhibition at 750 g/ha (Monochoria vaginalis [2]; 3 WAT): 92%
- inhibition at 750 g/ha (Monochoria vaginalis [2]; 5 WAT): 87%
- inhibition at 750 g/ha (Monochoria vaginalis [2]; 7 WAT): 60%
- inhibition at 1500 g/ha (Monochoria vaginalis [2]; 3 WAT): 100%
- inhibition at 1500 g/ha (Monochoria vaginalis [2]; 5 WAT): 100%
- inhibition at 1500 g/ha (Monochoria vaginalis [2]; 7 WAT): 100%
- inhibition at 3000 g/ha (Monochoria vaginalis [2]; 3 WAT): 100%
- inhibition at 3000 g/ha (Monochoria vaginalis [2]; 5 WAT): 100%
- inhibition at 3000 g/ha (Monochoria vaginalis [2]; 7 WAT): 100%
- selectivity factor (GR15/GR85), MV in transplant rice (Monochoria vaginalis [2]; between 3 WAT and 7 WAT): 8
- selectivity factor (GR15/GR85), EK in transplant rice (Eleocharis kuroguwai [3]; 3 WAT): non-selective
- inhibition at 375 g/ha (Eleocharis kuroguwai [3]; 3 WAT): 40%
- inhibition at 375 g/ha (Eleocharis kuroguwai [3]; 5 WAT): 22%
- inhibition at 375 g/ha (Eleocharis kuroguwai [3]; 7 WAT): 3%
- inhibition at 750 g/ha (Eleocharis kuroguwai [3]; 3 WAT): 37%
- inhibition at 750 g/ha (Eleocharis kuroguwai [3]; 5 WAT): 12%
- inhibition at 750 g/ha (Eleocharis kuroguwai [3]; 7 WAT): 3%
- inhibition at 1500 g/ha (Eleocharis kuroguwai [3]; 3 WAT): 55%
- inhibition at 1500 g/ha (Eleocharis kuroguwai [3]; 5 WAT): 25%
- inhibition at 1500 g/ha (Eleocharis kuroguwai [3]; 7 WAT): 0%
- inhibition at 3000 g/ha (Eleocharis kuroguwai [3]; 3 WAT): 68%
- inhibition at 3000 g/ha (Eleocharis kuroguwai [3]; 5 WAT): 40%
- inhibition at 3000 g/ha (Eleocharis kuroguwai [3]; 7 WAT): 0%
- inhibition at 375 g/ha (Eleocharis kuroguwai [4]; 2 WAT): 65%
- inhibition at 375 g/ha (Eleocharis kuroguwai [4]; 4 WAT): 33%
- inhibition at 375 g/ha (Eleocharis kuroguwai [4]; 6 WAT): 10%
- inhibition at 750 g/ha (Eleocharis kuroguwai [4]; 2 WAT): 45%
- inhibition at 750 g/ha (Eleocharis kuroguwai [4]; 4 WAT): 22%
- inhibition at 750 g/ha (Eleocharis kuroguwai [4]; 6 WAT): 0%
- inhibition at 1500 g/ha (Eleocharis kuroguwai [4]; 2 WAT): 83%
- inhibition at 1500 g/ha (Eleocharis kuroguwai [4]; 4 WAT): 78%
- inhibition at 1500 g/ha (Eleocharis kuroguwai [4]; 6 WAT): 28%
- inhibition at 3000 g/ha (Eleocharis kuroguwai [4]; 2 WAT): 90%
- inhibition at 3000 g/ha (Eleocharis kuroguwai [4]; 4 WAT): 88%
- inhibition at 3000 g/ha (Eleocharis kuroguwai [4]; 6 WAT): 68%
- inhibition at 280 g/ha (Monochoria vaginalis [5]; 0.28 Kg/Ha): 98%
- inhibition at 560 g/ha (Monochoria vaginalis [5]; 0.56 Kg/Ha): 100%
- inhibition at 1120 g/ha (Monochoria vaginalis [5]; 1.12 Kg/Ha): 100%
- inhibition at 2240 g/ha (Monochoria vaginalis [5]; 2.24 Kg/Ha): 100%
- inhibition at 375 g/ha (Echinochloa crus-galli [6]; 3 WAT): 23%
- inhibition at 375 g/ha (Echinochloa crus-galli [6]; 5 WAT): 20%
- inhibition at 375 g/ha (Echinochloa crus-galli [6]; 7 WAT): 17%
- inhibition at 750 g/ha (Echinochloa crus-galli [6]; 3 WAT): 80%
- inhibition at 750 g/ha (Echinochloa crus-galli [6]; 5 WAT): 75%
- inhibition at 750 g/ha (Echinochloa crus-galli [6]; 7 WAT): 70%
- inhibition at 1500 g/ha (Echinochloa crus-galli [6]; 3 WAT): 88%
- inhibition at 1500 g/ha (Echinochloa crus-galli [6]; 5 WAT): 90%
- inhibition at 1500 g/ha (Echinochloa crus-galli [6]; 7 WAT): 85%
- inhibition at 3000 g/ha (Echinochloa crus-galli [6]; 3 WAT): 93%
- inhibition at 3000 g/ha (Echinochloa crus-galli [6]; 5 WAT): 93%
- inhibition at 3000 g/ha (Echinochloa crus-galli [6]; 7 WAT): 90%
- selectivity factor (GR15/GR85), EC in transplant rice (Echinochloa crus-galli [6]; between 3 WAT and 7 WAT): 2
